Experimental findings from paper PMC7269146, “Jingzhaotoxin-X, a gating modifier of Kv4.2 and Kv4.3 potassium channels purified from the venom of the Chinese tarantula Chilobrachys jingzhao” (The Journal of Venomous Animals and Toxins Including …, 2020) are described below.

The target of the test is T1, Kv4.2 (Rattus norvegicus, UniProt Q63881).
T1 construct: expressed in transfected cells; host or cells: HEK293t
T1 sequence (Q63881 1-630): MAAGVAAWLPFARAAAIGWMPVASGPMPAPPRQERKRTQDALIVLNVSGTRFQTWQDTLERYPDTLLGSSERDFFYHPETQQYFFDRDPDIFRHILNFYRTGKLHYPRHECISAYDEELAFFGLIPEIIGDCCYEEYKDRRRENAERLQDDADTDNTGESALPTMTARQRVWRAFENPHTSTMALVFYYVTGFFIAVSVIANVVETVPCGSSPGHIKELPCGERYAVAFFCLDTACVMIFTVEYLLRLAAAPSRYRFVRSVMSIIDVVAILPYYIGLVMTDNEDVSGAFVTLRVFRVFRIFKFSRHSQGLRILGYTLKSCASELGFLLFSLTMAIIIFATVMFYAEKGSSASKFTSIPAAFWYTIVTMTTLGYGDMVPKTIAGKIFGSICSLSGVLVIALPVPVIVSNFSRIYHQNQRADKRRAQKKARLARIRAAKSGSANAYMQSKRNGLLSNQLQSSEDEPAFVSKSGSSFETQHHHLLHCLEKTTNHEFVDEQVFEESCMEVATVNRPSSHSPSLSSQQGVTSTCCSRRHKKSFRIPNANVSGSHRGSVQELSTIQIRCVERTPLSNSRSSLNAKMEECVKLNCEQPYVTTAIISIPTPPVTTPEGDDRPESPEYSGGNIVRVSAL
The test can be described thus: microelectrode voltage-clamp, Xenopus laevis oocytes, Kv4.2. Type of test: cell-based. The note with it: +20 mV from -90 mV, n = 5, read-out: inhibition of Kv4.2 current. The text has this:
Rat cDNA genes encoding Kv4.2 (Accession: NM_031730.2) and Kv4.3 (Accession: AB003587.1) were subcloned to vector pcDNA3.1. In addition, human cDNA genes encoding Nav1.7 (Accession: DQ857292.1) and Nav1.5 (Accession: AB158469.2) were subcloned to vectors pcDNA3.1-mod and pcDNA3.1, separately. Then, Kv4.2, Kv4.3, Nav1.5 and Nav1.7 constructs were transiently transfected into the human embryonic kidney 293t (HEK293t) cells using lipofectamine 2000 (Invitrogen, USA) in accordance with manufacturer protocols. Thereafter, HEK293 cells were inoculated within Dulbecco’s modified Eagle’s medium (DMEM) containing 10% fetal bovine serum (FBS) at 5% CO2 and 37°C. The Kv4.3 channel and the Kv4.2 counterpart were then transfected in the absence of β subunit. Subsequently, cells were incubated with a DNA-lipofectamine mixture (one reporter plasmid for green fluorescence protein and channel constructs) for 4-6 h, and were washed with the fresh medium.
Briefly, plasmids were linearized, and transcription was carried out according to the standardized protocol. Afterwards, the capped cRNAs that encoded the related ion channels were prepared. […]

Where a SMILES comes first, the peptide text is derived from it. Bridges are numbered along the chain shown (N, C = ends).

Consider `CC(C)C[C@@H]1NC(=O)[C@H](CCCCN)NC(=O)[C@H](Cc2ccc(O)cc2)NC(=O)[C@@H]2CSSC[C@@H]3NC(=O)[C@H](Cc4ccc(O)cc4)NC(=O)[C@H](Cc4ccccc4)NC(=O)CNC(=O)[C@H](C)NC(=O)[C@H](CSSC[C@H](NC(=O)[C@@H](N)CC(C)C)C(=O)N[C@@H](CO)C(=O)N[C@@H](CCCNC(=N)N)C(=O)N[C@@H](CCC(=O)O)C(=O)NCC(=O)N[C@@H](CCC(=O)O)C(=O)N[C@@H](Cc4ccccc4)C(=O)N2)NC(=O)[C@H](CSSC[C@@H](C(=O)N[C@@H](Cc2ccc(O)cc2)C(=O)N[C@@H](CCCNC(=N)N)C(=O)N[C@@H](CC(N)=O)C(=O)O)NC(=O)[C@H](Cc2c[nH]cn2)NC(=O)[C@H](CC(C)C)NC(=O)[C@H](C(C)C)NC(=O)[C@H](Cc2ccccc2)NC(=O)[C@H](C)NC(=O)[C@H](CCCCN)NC3=O)NC(=O)[C@H](CCCCN)NC(=O)[C@H](CCCNC(=N)N)NC1=O` [JZTX-X, Jingzhaotoxin-X] (H-LCSREGEFCYKLRKCCAGFYCKAFVLHCYRN-OH; disulfide 2-16, 9-21, 15-28; N-terminus assumed), for which, where the note is “0.1 μM (100 nM)”, the inhibition at 0.1 µM stood at 57.8 ± 4.6%. For the same compound, under “0.5 μM (500 nM)”, the inhibition at 0.5 µM amounted to 83.8 ± 5.1%.
